Source: BigSolDB 2.1

O=C(O)c1ccccc1O
solubility (mole fraction)
Conditions | 278.15 K | 283.15 K | 288.15 K | 293.15 K | 298.15 K | 303.15 K | 308.15 K | 313.15 K | 318.15 K
in ethanol | 0.108 | 0.117 | 0.126 | 0.136 | 0.145 | 0.157 | 0.17 | 0.182 | 0.197
in n-butanol | 0.106 | 0.116 | 0.126 | 0.137 | 0.148 | 0.16 | 0.174 | 0.186 | 0.201
in n-heptanol | 0.117 | 0.128 | 0.138 | 0.148 | 0.16 | 0.171 | 0.185 | 0.197 | 0.21
in n-hexanol | 0.116 | 0.127 | 0.137 | 0.146 | 0.158 | 0.169 | 0.182 | 0.195 | 0.209
in n-pentanol | 0.113 | 0.123 | 0.132 | 0.144 | 0.155 | 0.166 | 0.18 | 0.192 | 0.206
in n-propanol | 0.102 | 0.111 | 0.12 | 0.131 | 0.143 | 0.154 | 0.168 | 0.181 | 0.196
